{"source": "patent US5283361A", "about": "“N-hydroxy-N-[3-[2-(halophenylthio)phenyl]prop-2-enyl]ureas as lipoxygenase inhibitors” (Eli Lilly and Company, priority 1992, dated 1994)", "key": {"[1]": {"tested_on": "5-LO", "experiment": "In vitro antigen (ovalbumin)-induced contraction of sensitized guinea pig tracheal strips, Schultz-Dale reaction (Inhibition of 5-LO)", "format": "cell-based", "settings": "Cavia porcellus, antigen (OA) 30 ng/ml, 30 min preincubation, with indomethacin 5 μM and pyrilamine 10 μM", "description": "Male, Hartley strain guinea-pigs (200-250 g) were actively sensitized by three injections of ovalbumin (OA, 10 mg/kg). The OA was administered intraperitoneally on Days 1 and 3 and subcutaneously on Day 5. In vitro experiments were performed 21-25 days later.\nOn the day of the experiment, guinea pigs were killed by asphyxiation with CO2 and the tracheas removed, cleaned of surrounding connective tissue and cut into spiral strips. Each strip was divided in half for paired experiments. Tissues were placed in 10 ml jacketed tissue baths maintained at 37° C. and attached with cotton thread to Grass force-displacement transducers (FT03C). […] Tracheal strips were bathed in modified Krebs' solution of the following composition (millimolar) NaCl, 118.2;KCl, 4.6; CaCl2.2H2 O, 2.5; MgSO4.7H2 O, 1.2; NaHCO3,24.8; KH2 PO4, 1.0; and dextrose, 10.0. The buffer contained indomethacin (5 μM) which potentiated the contractions of the cysteinyl leukotriene (LT) by removing the influence of cyclooxygenase products. The tissue baths were aerated with 95% O2 :5% CO2. Tracheal strips were placed under a resting tension of 2 g, and the tissues were allowed a minimal stabilization period of 60 minutes before undergoing experimentation. Bath fluid was changed at 15 minute intervals during the stabilization period.\nCumulative concentration-response curves were obtained from tracheal strips by increasing the agonist concentration in the organ bath by half-log increments while the previous concentration remained in contact with the tissues (van Rossum, Arch. Int. Pharmacodyn. Ther., 143, 299-330 (1963)). Agonist concentration was increased after reaching the plateau of the contraction elicited by the preceeding concentration. One concentration-response curve was obtained from each tissue. To minimize variability between tissues, contractile responses were expressed as a percentage of the maximal response obtained with carbachol (10 μM), added to the bath at the end of the concentration-response curve. Initially, tissues were challenged with carbachol (10 μM) following the 60 minute stabilization period to insure tissue viability. After recording the maximal response to the initial carbachol challenge, the tissues were washed and reequilibrated for 60 minutes before starting the experimental protocol.\nTo evaluate the effects of novel 5-lipoxygenase inhibitors in the Schultz-Dale reaction, each compound was incubated with the tissues 30 minutes before starting the curves. Vehicle (DMSO) was given to the paired control tissue. Pyrilamine (10 μM) was added to all baths at this time to block the actions of released histamine. Responses obtained at the antigen concentration of 30 ng/ml were recorded in the absence and presence of drug and percent inhibition was calculated for each pair of tissues. IC50 valves were determined by linear regression."}, "[2]": {"tested_on": "5-LO", "experiment": "In vivo ovalbumin-induced increase in intratracheal pressure in passively sensitized guinea pigs (Inhibition of 5-LO)", "parameters": "species or system guinea pig", "settings": "OA-induced increase in tracheal pressure; for Inhibition of 5-LO In Vivo Percent Inhibition (dose of 10 mg/kg): dose of 10 mg/kg (footnote a), po, 2 hr.", "description": "Male Hartley guinea pigs (350-500 g) were passively sensitized against ovalbumin by i.p. administration of 0.3 ml of antiserum 2 days preceeding the experiment. Hyperimmune serum was prepared from actively sensitizing male guinea pigs conditioned with 2 mg of ovalbumin in 50% Complete Freund's Adjuvant i.p. on days 1 and 5. On day 21, the animals were bled and the serum collected and stored at -20° C. On the day of the experiment the passively sensitized guinea pigs were anesthetized with 35 to 40 mg/kg of pentobarbital sodium given i.p. The right jugular vein was cannulated with Tygon microbore tubing (o.d.=03) connected to a syringe for administration of selected drugs. Blood pressure was measured with a Statham pressure transducer connected to a Tygon catheter placed in the left carotid artery. The trachea was cannulated and each animal was ventilated with room air by means of a Harvard rodent respirator set to deliver a tidal volume of 1 ml/100 g body weight with a rate of 60 breaths/minute. Succinylcholine (5 mg/kg) was given i.v. to suppress spontaneous respiration. Intratracheal pressure, an index of total pulmonary resistance, was measured with a Statham pressure transducer connected to a T-tube on the tracheal cannula. […] Body temperature was maintained within normal limits by means of a Deltaphase isothermal pad. Prior to surgery, test compound or vehicle (PEG 400) was administered to each guinea pig by oral gavage and OA challenge was at designated times following oral dosing. The animals were pretreated i.v. with pyrilamine (5 mg/kg), propranolol (1 mg/kg) and indomethacin (10 mg/kg) 5 minutes prior to the OA challenge. OA-induced increase in tracheal pressure was expressed as a percentage of the maximal pressure obtained by clamping the trachea with a hemistat. To determine the effect of each drug, a % inhibition value was calculated from the vehicle and drug treated animals at each concentration tested."}}}
{"smiles": "NC(=O)N(O)C/C=C/c1c(F)cccc1Sc1ccc(F)cc1", "note": "[Example 1, N-hydroxy-N-[3-[2-(4-fluorophenylthio)-6-fluorophenyl]-prop-2-enyl]urea]", "values": [{"measurement": "IC50", "setting": "[1]", "result": 50, "unit": "nM"}, {"measurement": "Inhibition of 5-LO In Vivo Percent Inhibition at 30 mg/kg, po, 2 hr.", "setting": "[2]", "result": 97, "unit": "%"}]}
{"smiles": "NC(=O)N(O)C/C=C/c1ccccc1Sc1ccc(F)cc1", "note": "[Example 2, N-hydroxy-N-[3-[2-(4-fluorphenylthio)phenyl]prop-2-enyl]urea]", "values": [{"measurement": "IC50", "setting": "[1]", "result": 100, "unit": "nM"}, {"measurement": "Inhibition of 5-LO In Vivo Percent Inhibition at 30 mg/kg, po, 2 hr.", "setting": "[2]", "result": 96, "unit": "%"}]}
{"smiles": "NC(=O)N(O)C/C=C/c1ccc(F)cc1Sc1ccc(F)cc1", "note": "[Example 3, N-hydroxy-N-[3-[2-(4-fluorophenylthio)-4-fluorophenyl]prop-2-enyl]urea]", "values": [{"measurement": "IC50", "setting": "[1]", "result": 190, "unit": "nM"}, {"measurement": "Inhibition of 5-LO In Vivo Percent Inhibition (dose of 10 mg/kg)", "setting": "[2]", "result": 43, "unit": "%"}]}
{"smiles": "NC(=O)N(O)C/C=C/c1cc(F)ccc1Sc1ccc(F)cc1", "note": "[Example 4, N-hydroxy-N-[3-[2-(4-fluorophenylthio)-5-fluorophenyl]prop-2-enyl]urea]", "values": [{"measurement": "IC50", "setting": "[1]", "result": 230, "unit": "nM"}, {"measurement": "Inhibition of 5-LO In Vivo Percent Inhibition at 30 mg/kg, po, 2 hr.", "setting": "[2]", "result": 52, "unit": "%"}]}
{"smiles": "NC(=O)N(O)C/C=C/c1ccccc1Sc1ccc(Cl)cc1", "note": "[Example 5, N-hydroxy-N-[3-[2-(4-chlorophenylthio)phenyl]prop-2-enyl]urea]", "values": [{"measurement": "IC50", "setting": "[1]", "result": 140, "unit": "nM"}, {"measurement": "Inhibition of 5-LO In Vivo Percent Inhibition at 30 mg/kg, po, 2 hr.", "setting": "[2]", "result": 95, "unit": "%"}]}
{"smiles": "NC(=O)N(O)C/C=C/c1cccc(F)c1Sc1ccc(F)cc1", "note": "[Example 6, N-hydroxy-N-[3-[2-(4-fluorophenylthio)-3-fluorophenyl]prop-2-enyl]urea]", "values": [{"measurement": "IC50", "setting": "[1]", "result": 130, "unit": "nM"}, {"measurement": "Inhibition of 5-LO In Vivo Percent Inhibition at 30 mg/kg, po, 2 hr.", "setting": "[2]", "result": 81, "unit": "%"}]}
{"smiles": "NC(=O)N(O)C/C=C/c1cccc(F)c1Sc1ccc(Cl)cc1", "note": "[Example 7, N-hydroxy-N-[3-[2-(4-chlorophenylthio)-3-fluorophenyl]prop-2-enyl]urea]", "values": [{"measurement": "IC50", "setting": "[1]", "result": 90, "unit": "nM"}, {"measurement": "Inhibition of 5-LO In Vivo Percent Inhibition (dose of 10 mg/kg)", "setting": "[2]", "result": 77, "unit": "%"}]}
{"smiles": "NC(=O)N(O)C/C=C/c1c(F)cccc1Sc1ccc(Cl)cc1", "note": "[Example 8]", "values": [{"measurement": "IC50", "setting": "[1]", "result": 130, "unit": "nM"}, {"measurement": "Inhibition of 5-LO In Vivo Percent Inhibition at 30 mg/kg, po, 2 hr.", "setting": "[2]", "result": 46, "unit": "%"}]}
